Test results taken from the NIST ThermoML archive (doi:10.1021/je050540h).
Numbers after ± are expanded uncertainties.

Test: xn = mol fraction of the nth substance listed
Settings: 101 kPa, Liquid

C1CCCCC1 [cyclohexane] + CC(C)O
Settings | mass density, 293.15 K [kg/m3] | mass density, 298.15 K [kg/m3] | mass density, 303.15 K [kg/m3] | speed of sound, 293.15 K [m/s] | speed of sound, 298.15 K [m/s] | speed of sound, 303.15 K [m/s] | viscosity, 293.15 K [mPa·s] | viscosity, 298.15 K [mPa·s] | viscosity, 303.15 K [mPa·s]
x1 = 0.0484 | 783.76 ± 0.48 | 779.5 ± 0.48 | 775.15 ± 0.49 | 1160 ± 3 | 1141 ± 2 | 1123 ± 2 | 2.184 ± 0.051 | 1.883 ± 0.045 | 1.633 ± 0.04
x1 = 0.097 | 782.63 ± 0.48 | 778.29 ± 0.49 | 773.87 ± 0.49 | 1163 ± 3 | 1145 ± 3 | 1126 ± 2 | 1.988 ± 0.047 | 1.722 ± 0.041 | 1.504 ± 0.036
x1 = 0.2006 | 780.51 ± 0.48 | 776.05 ± 0.49 | 771.5 ± 0.5 | 1171 ± 3 | 1152 ± 3 | 1132 ± 2 | 1.651 ± 0.04 | 1.444 ± 0.035 | 1.267 ± 0.031
x1 = 0.3002 | 778.87 ± 0.48 | 774.29 ± 0.49 | 769.62 ± 0.5 | 1180 ± 3 | 1159 ± 3 | 1139 ± 2 | 1.427 ± 0.035 | 1.26 ± 0.031 | 1.112 ± 0.028
x1 = 0.3977 | 777.63 ± 0.48 | 772.95 ± 0.49 | 768.19 ± 0.5 | 1189 ± 3 | 1167 ± 3 | 1146 ± 3 | 1.264 ± 0.031 | 1.119 ± 0.028 | 0.996 ± 0.025
x1 = 0.507 | 776.69 ± 0.49 | 771.92 ± 0.49 | 767.09 ± 0.5 | 1200 ± 3 | 1178 ± 3 | 1155 ± 3 | 1.128 ± 0.028 | 1.008 ± 0.025 | 0.908 ± 0.023
x1 = 0.6046 | 776.15 ± 0.49 | 771.34 ± 0.49 | 766.47 ± 0.5 | 1211 ± 3 | 1188 ± 3 | 1165 ± 3 | 1.025 ± 0.026 | 0.926 ± 0.023 | 0.838 ± 0.021
x1 = 0.7058 | 775.92 ± 0.48 | 771.11 ± 0.49 | 766.23 ± 0.5 | 1223 ± 3 | 1200 ± 3 | 1176 ± 3 | 0.969 ± 0.024 | 0.878 ± 0.022 | 0.798 ± 0.021
x1 = 0.823 | 776.23 ± 0.48 | 771.42 ± 0.49 | 766.56 ± 0.5 | 1240 ± 3 | 1216 ± 3 | 1192 ± 3 | 0.944 ± 0.024 | 0.856 ± 0.022 | 0.786 ± 0.02
x1 = 0.9016 | 776.88 ± 0.48 | 772.09 ± 0.49 | 767.24 ± 0.5 | 1254 ± 3 | 1230 ± 3 | 1206 ± 3 | 0.95 ± 0.024 | 0.87 ± 0.022 | 0.801 ± 0.021
x1 = 0.9521 | 777.52 ± 0.48 | 772.74 ± 0.49 | 767.92 ± 0.5 | 1265 ± 3 | 1240 ± 3 | 1216 ± 3 | 0.962 ± 0.024 | 0.874 ± 0.022 | 0.802 ± 0.021
x1 = 1 | 778.62 ± 0.48 | 773.92 ± 0.49 | 769.19 ± 0.49 | 1279 ± 3 | 1254 ± 3 | 1230 ± 3 | 0.968 ± 0.024 | 0.887 ± 0.022 | 0.816 ± 0.021
